Calls of active or inactive are those of the source. The rule behind the calls is not given here.
How the values were obtained:
Cynomolgus monkey [1] = experiment: Cardiotoxicity in telemetered cynomolgus monkey assessed as prolongation of QTc interval at 1.5 to 6 mg/kg, sc measured after 1 to 4 hrs by telemetry method; format: toxicity, organism-based, Macaca fascicularis; set-up: route subcutaneous; conditions: in vivo
[2] = target: T1, Muscarinic acetylcholine receptor M5 (Homo sapiens) (UniProt P08912); experiment: Partial agonist activity at human M5 receptor in CHO cells assessed as calcium mobilization at 30 uM after 60 mins by FLIPR assay; format: functional, cell-based
T1 sequence (whole entry): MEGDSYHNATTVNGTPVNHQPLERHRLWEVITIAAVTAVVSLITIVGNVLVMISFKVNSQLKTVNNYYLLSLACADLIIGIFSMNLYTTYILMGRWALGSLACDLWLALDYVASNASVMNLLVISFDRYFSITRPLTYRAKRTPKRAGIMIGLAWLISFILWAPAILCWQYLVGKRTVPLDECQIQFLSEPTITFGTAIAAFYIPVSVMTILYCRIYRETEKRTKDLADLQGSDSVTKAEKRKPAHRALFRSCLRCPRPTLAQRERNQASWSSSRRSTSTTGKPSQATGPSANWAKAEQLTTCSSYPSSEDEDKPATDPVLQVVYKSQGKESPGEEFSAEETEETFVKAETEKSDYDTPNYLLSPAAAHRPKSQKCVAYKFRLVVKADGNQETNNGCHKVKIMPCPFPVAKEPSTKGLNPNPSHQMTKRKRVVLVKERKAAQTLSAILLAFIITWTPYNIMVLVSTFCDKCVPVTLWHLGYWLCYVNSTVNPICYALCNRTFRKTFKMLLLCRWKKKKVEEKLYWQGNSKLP

[3] = target: T1, Muscarinic acetylcholine receptor M5 (Homo sapiens); experiment: Partial agonist activity at human M5 receptor in CHO cells assessed as calcium mobilization at 3 uM after 60 mins by FLIPR assay; format: functional, cell-based
Cynomolgus monkey [4] = experiment: Induction of miosis in sc dosed cynomolgus monkey; format: organism-based, Macaca fascicularis; conditions: in vivo
Cynomolgus monkey [5] = experiment: Cardiotoxicity in telemetered cynomolgus monkey assessed as prolongation of QRS duration at 1.5 to 6 mg/kg, sc measured after 1 to 4 hrs by telemetry method; format: toxicity, organism-based, Macaca fascicularis; set-up: route subcutaneous; conditions: in vivo
Rattus norvegicus = experiment: Antipsychotic activity in Sprague-Dawley rats assessed as reversal of methamphetamine-induced hyperlocomotion at 1 to 10 mg/kg, sc administered 30 mins prior to methamphetamine injection measured for 80 mins from 10 mins after methamphetamine challenge; format: functional, organism-based

CCOC(=O)N1[C@@H]2CC[C@H]1C[C@H](CN1CC[C@H](N3C(=O)Cc4ccccc43)C1)C2
Activity (Cynomolgus monkey [1]): Non-toxic
Activity [2]: inactive
Activity [3]: 17%
Activity (Cynomolgus monkey [4]): Toxic
Activity (Cynomolgus monkey [5]): Non-toxic
inhibition (Rattus norvegicus): Active

From ChEMBL document CHEMBL2331215, “Discovery of novel N-substituted oxindoles as selective m1 and m4 muscarinic acetylcholine receptors partial agonists” (ACS Med Chem Lett, 2013)
